In brackets after ≈: the same amount, converted by molar mass.
Columns and labels:
E. coli MG1655 [1] = experiment: Determination of minimum inhibitory concentration (MIC); format: cell-based; conditions: Escherichia coli, MG1655, Example 2; methods as in Example 1; read-out: MIC E. coli
Method: (§1) Determination of minimum inhibitory concentration (MIC). MICs were also determined on Mueller Hinton agar plates (0.2% beef extract, 1.75% acid digest of casein, 0.15% soluble starch, 1.5% agar, pH 7.3).
(§2) Determination of MIC Minimal inhibitory concentrations (MICs) were determined using a standard 2-fold serial dilution format on L agar plates. Ten microliters of stationary culture diluted in 0.85% NaCl to 10^6 cells/ml were spotted on per plate. […] MICs were also determined on Mueller Hinton agar plates (0.2% beef extract, 1.75% acid digest of casein, 0.15% soluble starch, 1.5% agar, pH 7.3).

P. putida NBRC14164 = experiment: as above; format: cell-based, Pseudomonas putida; conditions: Pseudomonas putida, NBRC14164, Example 2; methods as in Example 1; read-out: MIC P. putida
Method: as §1, §2

S. typhimurium NBRC13245 = experiment: as above; format: cell-based, Salmonella typhimurium; conditions: Salmonella enterica, Example 2; methods as in Example 1; read-out: MIC S. typhimurium
Method: as §1, §2

B. subtilis 168 = experiment: as above; format: cell-based, Bacillus subtilis; conditions: Bacillus subtilis, 168, Example 2; methods as in Example 1; read-out: MIC B. subtilis
Method: as §1, §2

[2] = tested on: S. aureus subsp. aureus NBRC15035; experiment: as above; format: cell-based, Staphylococcus aureus; conditions: Staphylococcus aureus, NBRC15035, Example 2; methods as in Example 1; read-out: MIC S. aureus
Method: as §1, §2

E. coli MG1655 [3] = experiment: Microscopic observation of cell shape; format: cell-based; conditions: Example 2; methods as in Example 1
Method: Microscopic observation. E. coli K-12 strain MG1655 (F^− λ^−) was grown in Lennox broth containing 1% Polypepton, 0.5% yeast extract, 0.5% NaCl, and 0.1% glucose (pH 7.2). Cells spread on a slide glass were treated with methanol for 5 min and covered with poly-L-lysine. The fixed cells were observed by the differential interference contrast system through an Axioskop 2 microscope (Carl Zeiss Co., Ltd., Oberkochen, Germany). To observe the anucleate cells, cells were stained with a 4′,6-diamidino-2-phenylindole (DAPI) solution (5 μg/ml in saline) and then observed by the fluorescence phase-contrast combined method.
The effect of each compound on E. coli cell morphology was next examined.

Row | SMILES | MIC (E. coli MG1655 [1]) [µg/mL] | MIC (P. putida NBRC14164) [µg/mL] | MIC (S. typhimurium NBRC13245) [µg/mL] | MIC (B. subtilis 168) [µg/mL] | MIC [2] [µg/mL] | Shape (E. coli MG1655 [3])
1 | N=C(N)SCc1ccc([N+](=O)[O-])cc1 [Compound 4-NO2, S-(4-Nitro-benzyl)-isothiourea] | 25 (≈ 118 µM) | > 100 | 50 (≈ 237 µM) | 25 (≈ 118 µM) | > 100 | Sphere
2 | N=C(N)SCc1ccccc1Cl [Compound 2-Cl] | 12.5 (≈ 62.3 µM) | > 100 | 25 (≈ 125 µM) | > 100 | > 100 | Sphere
3 | N=C(N)SCc1ccc(C(F)(F)F)cc1 [Compound 4-CF3, S-(4-Trifluoromethyl-benzyl)-isothiourea] | 50 (≈ 213 µM) | > 100 | > 100 | > 100 | > 100 | Sphere
4 | N=C(N)SCc1ccc(F)c(F)c1 [3,4-F] | 12.5 (≈ 61.8 µM) | > 100 | 25 (≈ 124 µM) | 25 (≈ 124 µM) | 100 (≈ 494 µM) | Sphere
5 | N=C(N)SCc1c(Cl)cccc1Cl [2,6-Cl] | 12.5 (≈ 53.2 µM) | > 100 | 25 (≈ 106 µM) | > 100 | > 100 | Sphere
6 | N=C(N)SCc1c(F)c(F)c(F)c(F)c1F [pentaF] | > 100 | > 100 | > 100 | > 100 | > 100 | Sphere
7 | CC1CN(c2c(F)c(N)c3c(=O)c(C(=O)O)cn(C4CC4)c3c2F)CC(C)N1 (stereo not drawn) [SPFX, reference compound] | 0.0244 (≈ 0.0622 µM) | 0.391 (≈ 0.996 µM) | 0.0488 (≈ 0.124 µM) | 0.0244 (≈ 0.0622 µM) | 0.0488 (≈ 0.124 µM) | 
8 | N=C(N)SCc1ccccc1C(F)(F)F [Compound 2-CF3] | > 100 | > 100 | > 100 | > 100 | > 100 | Sphere
9 | N=C(N)SCc1cccc(Cl)c1 [Compound 3-Cl] | 50 (≈ 249 µM) | > 100 | > 100 | 50 (≈ 249 µM) | > 100 | Sphere
10 | N=C(N)SCc1cccc(C(F)(F)F)c1 [Compound 3-CF3] | > 100 | > 100 | > 100 | > 100 | > 100 | Sphere
11 | N=C(N)SCc1ccccc1F [Compound 2-F] | 25 (≈ 136 µM) | > 100 | 25 (≈ 136 µM) | > 100 | > 100 | Sphere
12 | CC1(C)S[C@@H]2[C@H](NC(=O)c3ccccc3)C(=O)N2[C@H]1C(=O)O [PCG, reference compound] | 50 (≈ 156 µM) | > 100 | 12.5 (≈ 39 µM) | 0.0122 (≈ 0.0381 µM) | 0.0977 (≈ 0.305 µM) | Fil
13 | N=C(N)SCc1cccc(F)c1 [Compound 3-F] | 50 (≈ 271 µM) | > 100 | > 100 | 50 (≈ 271 µM) | > 100 | Sphere
14 | N=C(N)SCc1cc(Cl)ccc1Cl [2,5-Cl] | 12.5 (≈ 53.2 µM) | > 100 | 25 (≈ 106 µM) | > 100 | > 100 | Sphere
15 | N=C(N)SCc1ccccc1Br [Compound 2-Br] | 50 (≈ 204 µM) | > 100 | 50 (≈ 204 µM) | > 100 | > 100 | Sphere
16 | COc1ccc(CSC(=N)N)cc1 [Compound 4-MeO] | > 100 | > 100 | > 100 | > 100 | > 100 | Sphere
17 | N=C(N)SCc1cc(Cl)cc(Cl)c1 [3,5-Cl] | > 100 | > 100 | > 100 | > 100 | > 100 | Sphere
18 | N=C(N)SCc1ccc(Cl)cc1Cl [2,4-Cl, S-(2,4-Dichloro-benzyl)-isothiourea] | 1.56 (≈ 6.63 µM) | > 100 | 1.56 (≈ 6.63 µM) | > 100 | > 100 | Sphere
19 | CC1(C)S[C@@H]2[C@H](NC(=O)C(N)c3ccccc3)C(=O)N2[C@H]1C(=O)O (stereo partly drawn) [ABPC, reference compound] | 3.13 (≈ 8.96 µM) | > 100 | 1.56 (≈ 4.46 µM) | 0.0488 (≈ 0.14 µM) | 0.195 (≈ 0.558 µM) | Fil
20 | N=C(N)SCc1ccc(I)cc1 [Compound 4-I, S-(4-Iodo-benzyl)-isothiourea] | 12.5 (≈ 42.8 µM) | > 100 | 25 (≈ 85.6 µM) | > 100 | > 100 | Sphere
21 | N=C(N)SCc1ccc(Cl)nc1 [4-Cl Pyr] | 100 (≈ 496 µM) | > 100 | > 100 | > 100 | > 100 | Sphere
22 | N=C(N)SCc1c(Cl)cc(Cl)cc1Cl [2,4,6-Cl] | 100 (≈ 371 µM) | > 100 | > 100 | 100 (≈ 371 µM) | > 100 | Sphere
23 | Cc1ccc(CSC(=N)N)cc1 [Compound 4-CH3, S-(4-methyl-benzyl)-isothiourea] | 25 (≈ 139 µM) | > 100 | 50 (≈ 277 µM) | > 100 | > 100 | Sphere
24 | N=C(N)SCc1ccc(F)cc1 [Compound 4-F, S-(4-Fluoro-benzyl)-isothiourea] | 12.5 (≈ 67.8 µM) | > 100 | 12.5 (≈ 67.8 µM) | 50 (≈ 271 µM) | 100 (≈ 543 µM) | Sphere
25 | N=C(N)SCc1cccc(Cl)c1Cl [2,3-Cl] | 25 (≈ 106 µM) | > 100 | 25 (≈ 106 µM) | 100 (≈ 425 µM) | 25 (≈ 106 µM) | Sphere
26 | O=C(N[C@H](CO)[C@H](O)c1ccc([N+](=O)[O-])cc1)C(Cl)Cl [CP, reference compound] | 6.25 (≈ 19.3 µM) | 50 (≈ 155 µM) | 6.25 (≈ 19.3 µM) | 3.13 (≈ 9.69 µM) | 12.5 (≈ 38.7 µM) | Rod
27 | CN(C)[C@@H]1C(O)=C(C(N)=O)C(=O)[C@@]2(O)C(O)=C3C(=O)c4c(O)cccc4[C@@](C)(O)C3CC12 (stereo partly drawn) [TC, reference compound] |  |  |  |  |  | Rod
28 | I.Nc1nc(-c2ccccc2)cs1 [TZ, reference compound] | > 100 | > 100 | > 100 | > 100 | > 100 | Rod
